The NIST ThermoML archive (doi:10.1007/s10765-015-1927-y)

How the values were obtained:
[1] = 303.15 K, 101 kPa, Liquid; for speed of sound: Frequency=1 MHz
[2] = xn = mol fraction of the nth substance listed; settings: 303.15 K, 101 kPa, Liquid; for speed of sound: Frequency=1 MHz

CCCCOC(C)=O [butyl ethanoate]
[1]
Settings | mass density [kg/m3] | speed of sound [m/s] | viscosity [mPa·s]
– | 871.07 | 1170 | 0.638

CCCCOC(C)=O [butyl ethanoate] + ClC=C(Cl)Cl
[2], x2 = 0
Settings | mass density [kg/m3] | speed of sound [m/s] | viscosity [mPa·s]
– | 871.07 | 1170 | 0.638

CCOC(C)=O [ethyl acetate]
[1]
Settings | mass density [kg/m3] | speed of sound [m/s] | viscosity [mPa·s]
– | 888.75 | 1126 | 0.424

CCOC(C)=O [ethyl acetate] + ClC=C(Cl)Cl
[2], x2 = 0
Settings | mass density [kg/m3] | speed of sound [m/s] | viscosity [mPa·s]
– | 888.75 | 1126 | 0.424

CCCOC(C)=O [propyl ethanoate]
[1]
Settings | mass density [kg/m3] | speed of sound [m/s] | viscosity [mPa·s]
– | 876.55 | 1148 | 0.547

CCCOC(C)=O [propyl ethanoate] + ClC=C(Cl)Cl
[2], x2 = 0
Settings | mass density [kg/m3] | speed of sound [m/s] | viscosity [mPa·s]
– | 876.55 | 1148 | 0.547

ClC=C(Cl)Cl [trichloroethene]
[1]
Settings | mass density [kg/m3] | speed of sound [m/s] | viscosity [mPa·s]
– | 1450.9 | 1016 | 0.589

ClC=C(Cl)Cl [trichloroethene] + CCCCOC(C)=O
[2]
Settings | mass density [kg/m3] | speed of sound [m/s] | viscosity [mPa·s]
x1 = 0.1739 | 944.38 | 1145 | 0.66
x1 = 0.25 | 979.14 | 1135 | 0.665
x1 = 0.3658 | 1035.81 | 1115 | 0.67
x1 = 0.4722 | 1092.05 | 1097 | 0.666
x1 = 0.5724 | 1149.11 | 1080 | 0.666
x1 = 0.6942 | 1224.71 | 1060 | 0.654
x1 = 0.7761 | 1279.91 | 1047 | 0.644
x1 = 0.9126 | 1380.34 | 1027 | 0.62
x1 = 1 | 1450.9 | 1016 | 0.589

ClC=C(Cl)Cl [trichloroethene] + CCCOC(C)=O
[2]
Settings | mass density [kg/m3] | speed of sound [m/s] | viscosity [mPa·s]
x1 = 0.1419 | 942.22 | 1126 | 0.567
x1 = 0.2337 | 987.22 | 1112 | 0.578
x1 = 0.364 | 1054.63 | 1094 | 0.592
x1 = 0.4555 | 1104.47 | 1081 | 0.601
x1 = 0.5827 | 1177.08 | 1063 | 0.61
x1 = 0.6735 | 1231.75 | 1050 | 0.614
x1 = 0.7713 | 1293.35 | 1038 | 0.612
x1 = 0.8922 | 1374.05 | 1025 | 0.604
x1 = 1 | 1450.9 | 1016 | 0.589

ClC=C(Cl)Cl [trichloroethene] + CCOC(C)=O
[2]
Settings | mass density [kg/m3] | speed of sound [m/s] | viscosity [mPa·s]
x1 = 0.1325 | 957.65 | 1105 | 0.451
x1 = 0.2099 | 998.68 | 1094 | 0.47
x1 = 0.3674 | 1083.99 | 1073 | 0.501
x1 = 0.4158 | 1110.76 | 1067 | 0.509
x1 = 0.5484 | 1185.16 | 1051 | 0.532
x1 = 0.6854 | 1263.95 | 1037 | 0.552
x1 = 0.8354 | 1352.1 | 1025 | 0.57
x1 = 0.8995 | 1390.34 | 1021 | 0.577
x1 = 1 | 1450.9 | 1016 | 0.589
